PMC9343605, “Structural insights into ligand recognition and selectivity of somatostatin receptors” (Cell Research, 2022)

Legend:
SSTR4 [1] = molecular target: T1, SSTR4 (Homo sapiens, UniProt P31391, F211A); experiment: cAMP accumulation assay (agonist-induced inhibition of forskolin-stimulated cAMP), SSTR4, HEK293F; assay type: cell-based; settings: SSTR4 mutant F211^5.38A; mean ± SEM;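 also: transiently transfected cells incubated 40 min at room temperature with 4 µM forskolin and graded ligand, cAMP read by LANCE Ultra TR-FRET kit, values normalized to WT receptor per ligand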
T1 construct: expressed in transfected cells; host or cells: HEK293F
Description: (§2) HEK293F cells were transiently transfected with WT or mutant SSTR2/SSTR4 using transfection reagent (PEI MAX 2000, Polysciences) and incubated at 37 °C in 5% CO2. Forty-eight hours after transfection, cells were centrifuged and resuspended in stimulation buffer (Hanks’ balanced salt solution (HBSS) supplemented with 5 mM HEPES, 0.5 mM IBMX and 0.1% (w/v) bovine serum albumin (BSA), pH 7.4) to a density of 200,000 cells/mL and added to 384-well white plates (PerkinElmer, 1000 cells/well). cAMP accumulation was measured by a LANCE Ultra cAMP kit (PerkinElmer) according to the manufacturer’s instructions. In brief, transfected cells were incubated for 40 min in stimulation buffer with 2.5 μL forskolin (SSTR2: 2 μM; SSTR4: 4 μM) and gradient concentration of ligand at RT. The reactions were stopped by addition of lysis buffer containing 5 μL Eu-cAMP tracer and 5 μL ULight-anti-cAMP. Plates were then incubated for 60 min at RT and time-resolved FRET signals were measured at 620 nm and 665 nm by an EnVision multilabel plate reader (PerkinElmer). Data were analyzed in GraphPad PRISM 8 and all values were normalized to the WT for each ligand. All outcomes were repeated at least three times.
(§3) aMutants represent that mutations were introduced separately into the WT receptors and
(§4) transiently expressed in HEK 293F cells.
(§5) bThe EC50 ratio was shown as EC50(mutant)/EC50(WT), indicating the shift between the WT
(§6) and mutant curves, reflecting the effect of the mutations on receptor signaling.
(§7) cData are shown as mean ± S.E.M. from at least three independent experiments
(§8) performed in technical triplicate. One-way ANOVA was performed followed by
(§9) Dunnett’s post-test and compared with WT. The P value was defined as: *P<0.05;
(§10) d The span is defined as the window between the maximal agonists response (Emax) and
(§11) e Sample size; the number of independent experiments performed in technical triplicate.
(§12) f Receptor expression level of HEK 293F cells was determined independently by flow
(§13) cytometry with anti-FLAG antibody and shown as per cent compared to the WT.

SSTR4 [2] = molecular target: T2, SSTR4 (Homo sapiens, UniProt P31391, L123A); experiment: as above; assay type: cell-based; settings: SSTR4 mutant L123^3.29A; mean ± SEM
T2 construct: expressed in transfected cells; host or cells: HEK293F
Description: as §2, §3, §4, §5, §6, §7, §8, §9, §10, §11, §12, §13

SSTR4 [3] = molecular target: T3, SSTR4 (Homo sapiens, UniProt P31391, L297A); experiment: as above; assay type: cell-based; settings: SSTR4 mutant L297^7.39A; mean ± SEM
T3 construct: expressed in transfected cells; host or cells: HEK293F
Description: as §2, §3, §4, §5, §6, §7, §8, §9, §10, §11, §12, §13

SSTR4 [4] = molecular target: T4, SSTR4 (Homo sapiens, UniProt P31391, N282A); experiment: as above; assay type: cell-based; settings: SSTR4 mutant N282^6.58A; mean ± SEM
T4 construct: expressed in transfected cells; host or cells: HEK293F
Description: as §2, §3, §4, §5, §6, §7, §8, §9, §10, §11, §12, §13

SSTR4 [5] = molecular target: T5, SSTR4 (Homo sapiens, UniProt P31391, N293A); experiment: as above; assay type: cell-based; settings: SSTR4 mutant N293^7.35A; mean ± SEM
T5 construct: expressed in transfected cells; host or cells: HEK293F
Description: as §2, §3, §4, §5, §6, §7, §8, §9, §10, §11, §12, §13

SSTR4 [6] = molecular target: T6, SSTR4 (Homo sapiens, UniProt P31391, V103L); experiment: as above; assay type: cell-based; settings: SSTR4 mutant V103^2.60L; mean ± SEM
T6 construct: expressed in transfected cells; host or cells: HEK293F
Description: as §2, §3, §4, §5, §6, §7, §8, §9, §10, §11, §12, §13

SSTR4 [7] = experiment: as above; assay type: cell-based, human; settings: for EC50 ratio: EC50(mutant)/EC50(WT)
Description: as §2, §3, §4, §5, §6, §7, §8, §9, §10, §11, §12, §13

SSTR4 [8] = experiment: Whole cell binding assay, SSTR4, competition with 125I-Tyr11-SST14, CHO-K1; parameters: species or system human; settings: IC50(mutant)/IC50(WT)
Description: (§14) For SSTR2 and SSTR4, CHO-K1 cells were cultured in F12 medium with 10% FBS and seeded at a density of 30,000 cells/well in Isoplate-96 plates (PerkinElmer). Twenty-four hours after transfection with the WT or mutant SSTR2/SSTR4, CHO-K1 cells were washed twice and incubated with blocking buffer (F12 supplemented with 25 mM HEPES and 0.1% (w/v) BSA, pH 7.4) for 2 h at 37 °C. […] Following incubation, cells were washed three times with ice-cold PBS and lysed by 50 μL lysis buffer (PBS supplemented with 20 mM Tris-HCl, 1% Triton X-100, pH 7.4). The radioactivity was subsequently counted (counts/min, CPM) in a scintillation counter (MicroBeta[2] Plate Counter, PerkinElmer) using a scintillation cocktail (OptiPhaseSuperMix, PerkinElmer). Data were analyzed by nonlinear regression using GraphPad PRISM 8.
(§15) aMutants represent that all mutations were introduced separately into the WT receptors
and expressed in CHO K1 cells.
(§16) bThe IC50 ratio was shown as IC50(mutant)/IC50(WT), indicating the shift between the WT
(§17) and mutant curves, reflecting the effect of the mutations on ligand binding.
(§18) cData are shown as mean ± S.E.M. form at least three independent experiments
as §8
(§19) Dunnett’s post-test and compared with WT.
as §10, §11

SSTR4 [9] = settings: SSTR4 selective agonist; cited from earlier work
Description: (§1) Along with increased knowledge of the pharmacological effects of these receptors, medical application of SST and its analogs has expanded. A considerable amount of effort has been made to develop new therapeutics for oncology of SSTRs. […] It was found recently that radiolabeled SSTR antagonists produced superi ...

SSTR4 [10] = molecular target: SSTR4 (Homo sapiens, UniProt P31391); experiment: Whole cell binding assay, SSTR4, competition with 125I-Tyr11-SST14, CHO-K1; parameters: expressed in transfected cells; settings: WT SSTR4, mean ± SEM
Description: as §14, §15
and expressed in CHO K1 cells.
as §16, §17, §18, §8, §19, §10, §11

SSTR4 [11] = molecular target: SSTR4 (Homo sapiens, UniProt P31391, D126A); experiment: as above; parameters: expressed in transfected cells; settings: SSTR4 mutant D126^3.32A; mean ± SEM
Description: as §14, §15
and expressed in CHO K1 cells.
as §16, §17, §18, §8, §19, §10, §11

SSTR4 [12] = molecular target: SSTR4 (Homo sapiens, UniProt P31391, F275A); experiment: as above; parameters: expressed in transfected cells; settings: SSTR4 mutant F275^6.51A; mean ± SEM
Description: as §14, §15
and expressed in CHO K1 cells.
as §16, §17, §18, §8, §19, §10, §11

SSTR4 [13] = molecular target: SSTR4 (Homo sapiens, UniProt P31391, M130A); experiment: as above; parameters: expressed in transfected cells; settings: SSTR4 mutant M130^3.36A; mean ± SEM
Description: as §14, §15
and expressed in CHO K1 cells.
as §16, §17, §18, §8, §19, §10, §11

SSTR4 [14] = molecular target: SSTR4 (Homo sapiens, UniProt P31391, N199A); experiment: as above; parameters: expressed in transfected cells; settings: SSTR4 mutant N199^ECL2A; mean ± SEM
Description: as §14, §15
and expressed in CHO K1 cells.
as §16, §17, §18, §8, §19, §10, §11

SSTR4 [15] = molecular target: SSTR4 (Homo sapiens, UniProt P31391, Q279A); experiment: as above; parameters: expressed in transfected cells; settings: SSTR4 mutant Q279^6.55A; mean ± SEM
Description: as §14, §15
and expressed in CHO K1 cells.
as §16, §17, §18, §8, §19, §10, §11

SSTR4 [16] = molecular target: SSTR4 (Homo sapiens, UniProt P31391, T215A); experiment: as above; parameters: expressed in transfected cells; settings: SSTR4 mutant T215^5.42A; mean ± SEM
Description: as §14, §15
and expressed in CHO K1 cells.
as §16, §17, §18, §8, §19, §10, §11

SSTR4 [17] = molecular target: SSTR4 (Homo sapiens, UniProt P31391, V264F); experiment: as above; parameters: expressed in transfected cells; settings: Construct 4 SSTR4, mean ± SEM
Description: as §14, §15
and expressed in CHO K1 cells.
as §16, §17, §18, §8, §19, §10, §11

SSTR4 [18] = molecular target: SSTR4 (Homo sapiens, UniProt P31391, Y276A); experiment: as above; parameters: expressed in transfected cells; settings: SSTR4 mutant Y276^6.52A; mean ± SEM
Description: as §14, §15
and expressed in CHO K1 cells.
as §16, §17, §18, §8, §19, §10, §11

SSTR4 [19] = molecular target: SSTR4 (Homo sapiens, UniProt P31391, Y301A); experiment: as above; parameters: expressed in transfected cells; settings: SSTR4 mutant Y301^7.43A; mean ± SEM
Description: as §14, §15
and expressed in CHO K1 cells.
as §16, §17, §18, §8, §19, §10, §11

[20] = tested on: growth hormone and glucagon releases; settings: full agonist; cited from earlier work
Description: as §1

SSTR2 [21] = settings: cited from earlier work
SSTR2 [22] = molecular target: SSTR2 (Homo sapiens, UniProt P30874, D122A); experiment: cAMP accumulation assay (agonist-induced inhibition of forskolin-stimulated cAMP), SSTR2, HEK293F; assay type: cell-based; parameters: expressed in transfected cells; host or cells: HEK293F; settings: SSTR2 mutant D122^3.32A; mean ± SEM;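 also: transiently transfected cells exposed to 2 µM forskolin and a ligand concentration series for 40 min at room temperature in IBMX-containing HBSS, then cAMP quantified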
SSTR2 [23] = molecular target: SSTR2 (Homo sapiens, UniProt P30874, F275A); experiment: as above; assay type: cell-based; parameters: expressed in transfected cells; host or cells: HEK293F; settings: SSTR2 mutant F275^6.54A; mean ± SEM
SSTR2 (Homo sapiens, UniProt P30874, F275A), sequence (P30874 whole entry F275A): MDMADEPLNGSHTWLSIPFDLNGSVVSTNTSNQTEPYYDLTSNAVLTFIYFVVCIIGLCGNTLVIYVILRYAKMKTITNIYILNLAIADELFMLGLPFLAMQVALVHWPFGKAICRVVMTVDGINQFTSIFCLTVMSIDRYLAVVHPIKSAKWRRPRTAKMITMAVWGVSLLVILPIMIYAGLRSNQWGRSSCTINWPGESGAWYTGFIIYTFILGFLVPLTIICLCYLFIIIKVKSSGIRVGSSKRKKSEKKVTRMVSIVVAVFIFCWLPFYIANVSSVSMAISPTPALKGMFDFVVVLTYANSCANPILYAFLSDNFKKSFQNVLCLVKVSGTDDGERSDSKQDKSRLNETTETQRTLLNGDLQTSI

SSTR4 (Homo sapiens, UniProt P31391, V264F), sequence (P31391 1-328 V264F): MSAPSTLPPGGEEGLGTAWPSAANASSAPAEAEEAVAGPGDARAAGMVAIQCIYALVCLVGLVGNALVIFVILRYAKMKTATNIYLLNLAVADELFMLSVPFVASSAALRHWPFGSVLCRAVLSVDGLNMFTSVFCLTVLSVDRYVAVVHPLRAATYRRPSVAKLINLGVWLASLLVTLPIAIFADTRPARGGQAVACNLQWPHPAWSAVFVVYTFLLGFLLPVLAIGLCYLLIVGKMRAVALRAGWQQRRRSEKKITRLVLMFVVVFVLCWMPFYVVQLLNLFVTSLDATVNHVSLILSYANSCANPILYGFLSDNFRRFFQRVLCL
SSTR4 (Homo sapiens, UniProt P31391), sequence (P31391 whole entry): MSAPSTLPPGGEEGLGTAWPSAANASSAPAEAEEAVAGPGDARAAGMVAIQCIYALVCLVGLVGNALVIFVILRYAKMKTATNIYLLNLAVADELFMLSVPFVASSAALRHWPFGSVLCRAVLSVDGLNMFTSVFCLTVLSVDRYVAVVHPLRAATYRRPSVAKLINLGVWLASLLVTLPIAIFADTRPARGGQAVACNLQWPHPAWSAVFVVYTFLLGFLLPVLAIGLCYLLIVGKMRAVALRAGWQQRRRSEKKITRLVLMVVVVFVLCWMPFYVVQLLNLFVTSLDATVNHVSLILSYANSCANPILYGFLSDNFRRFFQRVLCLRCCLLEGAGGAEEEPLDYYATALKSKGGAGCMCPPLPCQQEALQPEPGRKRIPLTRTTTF
SSTR4 (Homo sapiens, UniProt P31391, T215A), sequence (P31391 whole entry T215A): as the sequence (P31391 whole entry) above, with T215A counted along it
T4 sequence (P31391 whole entry N282A): as the sequence (P31391 whole entry) above, with N282A counted along it
T6 sequence (P31391 whole entry V103L): as the sequence (P31391 whole entry) above, with V103L counted along it
SSTR2 (Homo sapiens, UniProt P30874, D122A), sequence (P30874 whole entry D122A): as the sequence (P30874 whole entry F275A) above, with D122A, A275F counted along it
SSTR4 (Homo sapiens, UniProt P31391, Q279A), sequence (P31391 whole entry Q279A): as the sequence (P31391 whole entry) above, with Q279A counted along it
T5 sequence (P31391 whole entry N293A): as the sequence (P31391 whole entry) above, with N293A counted along it
T3 sequence (P31391 whole entry L297A): as the sequence (P31391 whole entry) above, with L297A counted along it
T1 sequence (P31391 whole entry F211A): as the sequence (P31391 whole entry) above, with F211A counted along it
T2 sequence (P31391 whole entry L123A): as the sequence (P31391 whole entry) above, with L123A counted along it
SSTR4 (Homo sapiens, UniProt P31391, Y276A), sequence (P31391 whole entry Y276A): as the sequence (P31391 whole entry) above, with Y276A counted along it
SSTR4 (Homo sapiens, UniProt P31391, N199A), sequence (P31391 whole entry N199A): as the sequence (P31391 whole entry) above, with N199A counted along it
SSTR4 (Homo sapiens, UniProt P31391, Y301A), sequence (P31391 whole entry Y301A): as the sequence (P31391 whole entry) above, with Y301A counted along it
SSTR4 (Homo sapiens, UniProt P31391, D126A), sequence (P31391 whole entry D126A): as the sequence (P31391 whole entry) above, with D126A counted along it
SSTR4 (Homo sapiens, UniProt P31391, F275A), sequence (P31391 whole entry F275A): as the sequence (P31391 whole entry) above, with F275A counted along it
SSTR4 (Homo sapiens, UniProt P31391, M130A), sequence (P31391 whole entry M130A): as the sequence (P31391 whole entry) above, with M130A counted along it

For Cc1ccc(S(=O)(=O)N[C@@H](CCN)C(=O)N[C@@H](Cc2ccccc2)C(N)=O)c2ccccc12 [J-2156], the Span (SSTR4 [1]) was 94±7 % of WT, the “pEC50 ± SEM” value (SSTR4 [1]) was 8.20±0.17 and the Span (SSTR4 [2]) was 61±6 % of WT. For the same molecule, the “pEC50 ± SEM” value (SSTR4 [2]) was 9.49±0.23, the Span (SSTR4 [3]) was 111 ± 8 % of WT and the “pEC50 ± SEM” value (SSTR4 [3]) was 7.59±0.16. For the same molecule, the Span (SSTR4 [4]) was 62±5 % of WT, the “pEC50 ± SEM” value (SSTR4 [4]) was 9.99±0.21 and the Span (SSTR4 [5]) was 87±6 % of WT. The “pEC50 ± SEM” value (SSTR4 [5]) was 9.30±0.17, the Span (SSTR4 [6]) was 40±4 % of WT and the “pEC50 ± SEM” value (SSTR4 [6]) was 9.00±0.25. For the same molecule, the EC50 ratio (SSTR4 [7]; Construct 4 SSTR4) was 0.2, the “effect of alanine mutation on agonist potency” value (SSTR4 [7]; SSTR4 F275^6.51 and Y276^6.52) was “significant reduction in agonist potency” and the EC50 ratio (SSTR4 [7]; SSTR4 mutant F211^5.38A) was 33. For the same molecule, the EC50 ratio (SSTR4 [7]; SSTR4 mutant L123^3.29A) was 2, the EC50 ratio (SSTR4 [7]; SSTR4 mutant L297^7.39A) was 137 and the EC50 ratio (SSTR4 [7]; SSTR4 mutant M130^3.36A) was 4. For the same molecule, the EC50 ratio (SSTR4 [7]; SSTR4 mutant N199^ECL2A) was 0.3, the EC50 ratio (SSTR4 [7]; SSTR4 mutant N293^7.35A) was 3 and the EC50 ratio (SSTR4 [7]; SSTR4 mutant Q279^6.55A) was 1. For the same molecule, the EC50 ratio (SSTR4 [7]; SSTR4 mutant T215^5.42A) was 1, the EC50 ratio (SSTR4 [7]; SSTR4 mutant V103^2.60L) was 5 and the decrease of potency (SSTR4 [7]; SSTR4 mutant V103^2.60 to leucine) was ~ 5 fold. For the same molecule, the EC50 ratio (SSTR4 [7]; SSTR4 mutant Y276^6.52A) was 1016, the EC50 ratio (SSTR4 [7]; SSTR4 mutant Y301^7.43A) was 497 and the EC50 ratio (SSTR4 [7]; WT SSTR4) was 1. It also gave an IC50 ratio (SSTR4 [8]; Construct 4 SSTR4) of 0.5, an IC50 ratio (SSTR4 [8]; SSTR4 mutant Q279^6.55A) of 2 and an IC50 ratio (SSTR4 [8]; SSTR4 mutant T215^5.42A) of 1. The IC50 ratio (SSTR4 [8]; WT SSTR4) was 1, the pain relief (SSTR4 [9]) was “mediates pain relief” and the “pKi ± SEM” value (SSTR4 [10]; competition with 125I-SST-14) was 9.21 ± 0.14. The Span (SSTR4 [10]) was 100±6 % of WT, the “pIC50 ± SEM” value (SSTR4 [10]; at least three independent experiments) was 9.21±0.14 and the Span (SSTR4 [11]) was 12±3 % of WT. For the same molecule, the Span (SSTR4 [12]) was 11 ± 4 % of WT, the Span (SSTR4 [13]) was 12±4 % of WT and the Span (SSTR4 [14]) was 13±3 % of WT. The Span (SSTR4 [15]) was 26±4 % of WT, the “pIC50 ± SEM” value (SSTR4 [15]) was 8.93±0.38 and the Span (SSTR4 [16]) was 67±4 % of WT. The “pIC50 ± SEM” value (SSTR4 [16]) was 9.08±0.16, the “pKi ± SEM” value (SSTR4 [17]; competition with 125I-SST-14) was 9.47 and the Span (SSTR4 [17]) was 96±9 % of WT. The “pIC50 ± SEM” value (SSTR4 [17]) was 9.47±0.25, the Span (SSTR4 [18]) was 9±3 % of WT and the Span (SSTR4 [19]) was 15±5 % of WT.

For C[C@@H](c1c[nH]c2ccccc12)[C@@H](NC(=O)N1CCC(n2c(=O)[nH]c3ccccc32)CC1)C(=O)N[C@@H](CCCCN)C(=O)OC(C)(C)C [L-054,522], the “effect on growth hormone and glucagon releases” value [20] is given as “inhibitory effect on growth hormone and glucagon releases”, the “selectivity for SSTR2” value (SSTR2 [21]) is given as “at least 3000 fold” and the Span (SSTR2 [22]) is given as 41±6 % of WT. For the same molecule, the “pEC50 ± SEM” value (SSTR2 [22]) was 7.37±0.27, the Span (SSTR2 [23]) was 154±10 % of WT and the “pEC50 ± SEM” value (SSTR2 [23]) was 8.93±0.15.
